Assay results taken from the supplement of paper PMC10307832.

What was measured:
Test in all cases: relative viability (nuclei count vs DMSO), 5 days (fraction); higher = more cells survive
Ruboxistaurin = compound: CN(C)C[C@@H]1CCn2cc(c3ccccc32)C2=C(C(=O)NC2=O)c2cn(c3ccccc23)CCO1 [Ruboxistaurin]
In short: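 Five library-drug doses, separated by factors of √10, were pinned into 1536-well plates holding lung cancer cell lines after an overnight stay at 37 °C. Cells were fixed, permeabilised and Hoechst-stained in one step after 5 days without medium change, then imaged at 4×. Viability compares treated-well with vehicle-well nuclei, counted in MetaXpress, as a median across plates. Passing plates had control CV below 25% and at least one doubling.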

[1] = compound: CN(C)C[C@@H]1CCn2cc(c3ccccc32)C2=C(C(=O)NC2=O)c2cn(c3ccccc23)CCO1 [Ruboxistaurin] + CC1(C)CCC(c2ccc(Cl)cc2)=C(CN2CCN(c3ccc(C(=O)NS(=O)(=O)c4ccc(N[C@H](CCN5CCOCC5)CSc5ccccc5)c(S(=O)(=O)C(F)(F)F)c4)cc3)CC2)C1 [Navitoclax] (partner 0.5 µM)
In short: (§1)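 Five library-drug doses in √10 steps were combined with a fixed anchor-drug dose, or a single drug was given alone, by pin tool to lung cancer cell lines in 1536-well plates the day after seeding. Nuclei were stained and counted after 5 days. Relative viability is the nuclei count in treated wells over that in vehicle wells, taken as the median of duplicate plates.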

[2] = compound: CN(C)C[C@@H]1CCn2cc(c3ccccc32)C2=C(C(=O)NC2=O)c2cn(c3ccccc23)CCO1 [Ruboxistaurin] + CS(=O)(=O)CCNCc1ccc(-c2ccc3ncnc(Nc4ccc(OCc5cccc(F)c5)c(Cl)c4)c3c2)o1 [Lapatinib] (partner 2 µM)
In short: as §1

[3] = compound: CN(C)C[C@@H]1CCn2cc(c3ccccc32)C2=C(C(=O)NC2=O)c2cn(c3ccccc23)CCO1 [Ruboxistaurin] + Cc1nc(Nc2ncc(C(=O)Nc3c(C)cccc3Cl)s2)cc(N2CCN(CCO)CC2)n1 [Dasatinib] (partner 0.075 µM)
In short: as §1

[4] = compound: CN(C)C[C@@H]1CCn2cc(c3ccccc32)C2=C(C(=O)NC2=O)c2cn(c3ccccc23)CCO1 [Ruboxistaurin] + O=C(CCCCCCC(=O)Nc1ccccc1)NO [Vorinostat] (partner 1 µM)
In short: as §1

Row | Cell Line | relative viability (Ruboxistaurin; 0.08 µM) | relative viability (Ruboxistaurin; 0.8 µM) | relative viability (Ruboxistaurin; 2.53 µM) | relative viability (Ruboxistaurin; 8 µM) | relative viability ([1]; first compound 0.08 µM) | relative viability ([1]; first compound 0.8 µM) | relative viability ([1]; first compound 2.53 µM) | relative viability ([1]; first compound 8 µM) | relative viability ([2]; first compound 0.08 µM) | relative viability ([2]; first compound 0.8 µM) | relative viability ([2]; first compound 2.53 µM) | relative viability ([2]; first compound 8 µM) | relative viability ([3]; first compound 0.08 µM) | relative viability ([3]; first compound 0.8 µM) | relative viability ([3]; first compound 2.53 µM) | relative viability ([3]; first compound 8 µM) | relative viability ([4]; first compound 0.08 µM) | relative viability ([4]; first compound 0.8 µM) | relative viability ([4]; first compound 2.53 µM) | relative viability ([4]; first compound 8 µM)
1 | NCI-H1944 | 0.958 | 0.897 | 0.932 | 0.819 | 1.08 | 1 | 1.04 | 1.09 | 0.874 | 0.71 | 0.731 | 0.819 | 0.209 | 0.204 | 0.205 | 0.189 | 0.552 | 0.552 | 0.558 | 0.427
2 | NCI-H2023 | 1.02 | 0.788 | 1.08 | 0.735 | 0.973 | 0.837 | 0.947 | 0.89 | 0.862 | 0.679 | 0.913 | 0.628 | 0.579 | 0.453 | 0.523 | 0.439 | 0.676 | 0.546 | 0.667 | 0.441
3 | NCI-H1650 | 1.24 | 0.742 | 1.08 | 0.886 | 1.09 | 1.2 | 1.34 | 1.2 | 1.03 | 0.694 | 1.09 | 0.829 | 0.418 | 0.273 | 0.331 | 0.254 | 0.676 | 0.554 | 0.685 | 0.569
4 | NCI-H1395 | 1.05 | 0.844 | 1.01 | 0.882 | 1.12 | 1.03 | 1.2 | 1.06 | 1.01 | 1.06 | 1.2 | 0.879 | 0.444 | 0.427 | 0.386 | 0.372 | 0.813 | 0.739 | 0.707 | 0.688
5 | NCI-H2087 | 1.17 | 0.976 | 1.05 | 1.06 | 1.24 | 0.866 | 1.17 | 0.957 | 0.952 | 1.02 | 1.25 | 1.1 | 0.889 | 0.783 | 0.835 | 0.701 | 0.977 | 0.672 | 0.723 | 0.975
6 | NCI-H838 | 1.03 | 0.839 | 0.964 | 0.923 | 1.38 | 1.05 | 1.3 | 0.979 | 1.07 | 0.813 | 0.929 | 0.875 | 0.327 | 0.209 | 0.286 | 0.326 | 0.813 | 0.665 | 0.742 | 0.734
7 | NCI-H1793 | 1.05 | 0.749 | 1.27 | 1.08 | 0.503 | 0.382 | 0.468 | 0.604 | 0.845 | 0.641 | 0.909 | 0.841 | 0.371 | 0.377 | 0.442 | 0.506 | 0.87 | – | 1.08 | 0.821
8 | LC-2-ad | 1.06 | 0.935 | 1.04 | 1.08 | 0.474 | 0.395 | 0.557 | 0.345 | 1.1 | 0.889 | 1.02 | 1.02 | 0.672 | 0.651 | 0.575 | 0.558 | 0.747 | 0.668 | 0.694 | 0.694
9 | HCC-78 | 1.11 | 0.996 | 1.1 | 0.949 | 0.802 | 0.686 | 0.812 | 0.793 | 0.745 | 0.717 | 0.774 | 0.944 | 0.52 | 0.399 | 0.377 | 0.283 | 0.419 | 0.368 | 0.425 | 0.475
10 | LOU-NH91 | 1.09 | 0.939 | 1.01 | 0.927 | 0.846 | 0.58 | 0.738 | 0.692 | 0.785 | 0.72 | 0.851 | 0.698 | 0.612 | 0.503 | 0.56 | 0.528 | 0.954 | 0.868 | 0.958 | 0.878
11 | NCI-H1734 | 0.989 | 0.832 | 1.04 | 0.816 | 0.964 | 0.671 | 0.857 | 0.745 | 1.1 | 0.984 | 1.11 | 0.445 | 0.559 | 0.39 | 0.437 | 0.347 | 0.861 | 0.714 | 0.815 | 0.624
12 | NCI-H520 | 1.05 | 0.901 | 1.02 | 0.779 | 1.24 | 0.984 | 1.19 | 0.955 | 0.904 | 0.772 | 0.867 | 0.864 | 0.195 | 0.157 | 0.176 | 0.129 | 0.883 | 0.723 | 0.735 | 0.672
13 | UMC-11 | 0.964 | 0.914 | 0.974 | 0.762 | 0.312 | 0.28 | 0.294 | 0.248 | 1.03 | 0.844 | 0.875 | 0.644 | 0.481 | 0.455 | 0.429 | 0.434 | 0.41 | 0.377 | 0.388 | 0.289
14 | NCI-H596 | 0.979 | 0.864 | 1.02 | 0.867 | 0.962 | 0.845 | 0.983 | 0.69 | 1.08 | 0.965 | 1.04 | 0.848 | 0.65 | 0.488 | 0.63 | 0.547 | 0.817 | 0.428 | 0.578 | 0.576
15 | NCI-H1755 | 1.01 | 1.01 | 0.974 | 1.03 | 1.05 | 0.934 | 0.963 | 0.962 | 1.05 | 1 | 1.01 | 1.07 | 0.455 | 0.387 | 0.402 | 0.346 | 0.702 | 0.849 | 0.856 | 0.811
16 | SK-LU-1 | 1.22 | 0.969 | 1.03 | 1.08 | 0.843 | 0.857 | 0.949 | 0.829 | 0.937 | 0.785 | 0.996 | 0.969 | 0.195 | 0.145 | 0.163 | 0.169 | 0.946 | 0.722 | 0.776 | 0.657
17 | NCI-H647 | 1.1 | 0.898 | 1 | 0.978 | 1.23 | 1 | 1.17 | 1.2 | 1.06 | 0.97 | 1.08 | 0.815 | 0.185 | 0.127 | 0.149 | 0.154 | 0.673 | 0.447 | 0.725 | 0.719
18 | SW 1573 | 1.16 | 0.871 | 1.02 | 0.907 | 0.978 | 0.791 | 1.01 | 0.854 | 1.1 | 1.12 | 1.18 | 1.03 | 0.52 | 0.331 | 0.452 | 0.456 | 0.756 | 0.413 | 0.809 | 0.698
19 | HCC-15 | 1.06 | 0.953 | 1.07 | 1.04 | 0.724 | 0.64 | 0.71 | 0.62 | 0.879 | 0.88 | 0.879 | 0.947 | 0.683 | 0.593 | 0.489 | 0.518 | 0.975 | 0.74 | 0.925 | 0.833
20 | NCI-H2126 | 1 | 0.898 | 1.04 | 0.934 | 0.914 | 0.78 | 0.844 | 0.794 | 0.751 | 0.703 | 0.774 | 0.73 | 0.697 | 0.557 | 0.611 | 0.539 | 0.844 | 0.636 | 0.871 | 0.621
21 | NCI-H2085 | 1.02 | 0.942 | 1.07 | 1.04 | 1.27 | 1.1 | 1.27 | 1.26 | 0.902 | 0.76 | 0.754 | 0.721 | 0.204 | 0.254 | 0.294 | 0.219 | 0.914 | 0.82 | 0.842 | 0.815
22 | BEN | 1.05 | 0.902 | 0.877 | 0.857 | 0.0424 | 0.0646 | 0.0707 | 0.114 | 0.803 | 0.617 | 0.708 | 0.564 | 0.316 | 0.297 | 0.307 | 0.298 | 0.608 | 0.544 | 0.6 | 0.585
23 | PC-14 | 1.17 | 0.924 | 1.01 | 0.989 | 1.03 | 0.988 | 1.02 | 1.08 | 0.353 | 0.311 | 0.302 | 0.294 | 0.269 | 0.221 | 0.281 | 0.0895 | 0.892 | 0.668 | 0.785 | 0.648
24 | NCI-H2228 | 0.94 | 0.89 | 1.01 | 0.93 | 0.922 | 0.907 | 1.15 | 0.692 | 1.51 | 1.1 | 1.14 | 0.911 | 0.615 | 0.493 | 0.49 | 0.456 | 0.924 | 0.424 | 0.588 | 0.559
25 | COR-L23 | 1.1 | 0.955 | 1.14 | 1.17 | 1.16 | 1.01 | 1.03 | 0.998 | 1.23 | 0.914 | 1.09 | 1.08 | 0.489 | 0.399 | 0.549 | 0.602 | 0.61 | 0.442 | 0.522 | 0.501
26 | NCI-H1915 | 0.984 | 0.958 | 0.998 | 0.962 | 0.811 | 0.752 | 0.765 | 0.867 | 1.02 | 0.918 | 0.891 | 0.967 | 0.308 | 0.286 | 0.267 | 0.224 | 0.473 | 0.526 | 0.513 | 0.464
